Test results reported in US20240287122A1, “NOVEL GALACTOSIDE INHIBITOR OF GALECTINS” (GALECTO BIOTECH AB, priority 2020, published 2024).

How the values were obtained:
Galectin-1 = Galectin-1 (Homo sapiens, UniProt P09382); test: Fluorescence anisotropy assay, affinity for galectin-1; type: binding; details: compound as inhibitor of the interaction between galectin and a fluorescein tagged saccharide probe
Protocol: (§1) The affinity of Example 1-43 for galectins were determined by a fluorescence anisotropy assay where the compound was used as an inhibitor of the interaction between galectin and a fluorescein tagged saccharide probe as described Sörme, P., Kahl-Knutsson, B., Huflejt, M., Nilsson, U. J., and Leffler H. (2004) Fluorescence polarization as an analytical tool to evaluate galectin-ligand interactions. Anal. Biochem. 334: 36-47, (Sörme et al., 2004) and Monovalent interactions of Galectin-1 By Salomonsson, Emma; Larumbe, Amaia; Tejler, Johan; Tullberg, Erik; Rydberg, Hanna; Sundin, Anders; Khabut, Areej; Frejd, Torbjomn; Lobsanov, Yuri D.; Rini, James M.; et al, From Biochemistry (2010), 49(44), 9518-9532, (Salomonsson et al., 2010).

Galectin-3 = Galectin-3 (Homo sapiens, UniProt P17931); test: Fluorescence anisotropy assay, affinity for galectin-3; type: binding; details: compound as inhibitor of the interaction between galectin and a fluorescein tagged saccharide probe
Protocol: as §1

Galectin-3, sequence (P17931 whole entry): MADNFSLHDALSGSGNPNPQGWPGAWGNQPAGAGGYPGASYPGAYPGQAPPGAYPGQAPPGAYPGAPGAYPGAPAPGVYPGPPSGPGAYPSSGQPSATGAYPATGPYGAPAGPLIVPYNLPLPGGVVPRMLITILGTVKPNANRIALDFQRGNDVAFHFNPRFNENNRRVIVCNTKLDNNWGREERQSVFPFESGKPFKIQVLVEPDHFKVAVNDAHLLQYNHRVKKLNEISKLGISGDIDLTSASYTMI
Galectin-1, sequence (P09382 whole entry): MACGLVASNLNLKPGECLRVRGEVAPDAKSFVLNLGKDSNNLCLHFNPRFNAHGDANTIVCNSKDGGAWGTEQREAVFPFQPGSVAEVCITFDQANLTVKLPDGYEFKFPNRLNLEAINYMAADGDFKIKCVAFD

Compound	Kd (Galectin-1) [nM]	Kd (Galectin-3) [nM]
CNC(=O)c1ncc(Br)cc1S[C@H]1OC(CO)[C@H](O)C(n2cc(-n3ccc(Cl)n3)nn2)C1OC (stereo partly drawn) [Example 34, 5-Bromo-2-(N-methylcarbamoyl)pyridin-3-yl 3-[4-(3-chloro-1H-1,2-pyrazol-1-yl)-1H-1,2,3-triazol-1-yl]-3-deoxy-2-O-methyl-1-thio-α-D-galactopyranoside]	63	140
CCNC(=O)c1ncc(Br)cc1S[C@H]1OC(CO)[C@H](O)[C@H](n2cc(-n3ccc(Cl)n3)nn2)C1OC (stereo partly drawn) [Example 35, 5-Bromo-2-(N-ethylcarbamoyl)pyridin-3-yl 3-[4-(3-chloro-1H-1,2-pyrazol-1-yl)-1H-1,2,3-triazol-1-yl]-3-deoxy-2-O-methyl-1-thio-α-D-galactopyranoside]	63	140
CCCCNC(=O)c1ncc(Br)cc1S[C@H]1OC(CO)[C@H](O)[C@H](n2cc(-n3ccc(Cl)n3)nn2)C1OC (stereo partly drawn) [Example 36, 5-Bromo-2-(N-butylcarbamoyl)pyridin-3-yl 3-[4-(3-chloro-1H-1,2-pyrazol-1-yl)-1H-1,2,3-triazol-1-yl]-3-deoxy-2-O-methyl-1-thio-α-D-galactopyranoside]	110	140
COC1[C@@H](Sc2cc(Br)cnc2C(=O)NCC(C)C)OC(CO)[C@H](O)[C@@H]1n1cc(-n2ccc(Cl)n2)nn1 (stereo partly drawn) [Example 37, 5-Bromo-2-(N-isobutylcarbamoyl)pyridin-3-yl 3-[4-(3-chloro-1H-1,2-pyrazol-1-yl)-1H-1,2,3-triazol-1-yl]-3-deoxy-2-O-methyl-1-thio-α-D-galactopyranoside]	92	110
COC1[C@@H](Sc2cc(Br)cnc2C(=O)NCCF)OC(CO)[C@H](O)[C@@H]1n1cc(-n2ccc(Cl)n2)nn1 (stereo partly drawn) [Example 38, 5-Bromo-2-[N-(2-fluoroethyl)carbamoyl]pyridin-3-yl 3-[4-(3-chloro-1H-1,2-pyrazol-1-yl)-1H-1,2,3-triazol-1-yl]-3-deoxy-2-O-methyl-1-thio-α-D-galactopyranoside]	80	180
COC1[C@@H](Sc2cc(Br)cnc2C(=O)NC23CC(C2)C3)OC(CO)[C@H](O)[C@@H]1n1cc(-n2ccc(Cl)n2)nn1 (stereo partly drawn) [Example 39, 5-Bromo-2-(N-bicyclo[1.1.1]pentan-1-ylcarbamoyl)pyridin-3-yl 3-[4-(3-chloro-1H-1,2-pyrazol-1-yl)-1H-1,2,3-triazol-1-yl]-3-deoxy-2-O-methyl-1-thio-α-D-galactopyranoside]	64	180
COC1[C@@H](Sc2cc(Br)cnc2C(=O)NC2CCC2)OC(CO)[C@H](O)[C@@H]1n1cc(-n2ccc(Cl)n2)nn1 (stereo partly drawn) [Example 40, 5-Bromo-2-(N-cyclobutylcarbamoyl)pyridin-3-yl 3-[4-(3-chloro-1H-1,2-pyrazol-1-yl)-1H-1,2,3-triazol-1-yl]-3-deoxy-2-O-methyl-1-thio-α-D-galactopyranoside]	82	160
COC1[C@@H](Sc2cc(Br)cnc2C(=O)NC2CC2)OC(CO)[C@H](O)[C@@H]1n1cc(-n2ccc(Cl)n2)nn1 (stereo partly drawn) [Example 41, 5-Bromo-2-(N-cyclopropylcarbamoyl)pyridin-3-yl 3-[4-(3-chloro-1H-1,2-pyrazol-1-yl)-1H-1,2,3-triazol-1-yl]-3-deoxy-2-O-methyl-1-thio-α-D-galactopyranoside]	73	160
COC1C(n2cc(-n3cc(Cl)c(Cl)n3)nn2)[C@@H](O)C(CO)O[C@@H]1Sc1cc(Br)cnc1C#N (stereo partly drawn) [Example 42, 5-Bromo-2-cyanopyridin-3-yl 3-[4-(3,4-dichloro-1H-1,2-pyrazol-1-yl)-1H-1,2,3-triazol-1-yl]-3-deoxy-2-O-methyl-1-thio-α-D-galactopyranoside]	290	30
COC1C(n2cc(-n3cc(F)c(Cl)n3)nn2)[C@@H](O)C(CO)O[C@@H]1Sc1cc(Br)cnc1C#N (stereo partly drawn) [Example 43, 5-Bromo-2-cyanopyridin-3-yl 3-[4-(3-chloro-4-fluoro-1H-1,2-pyrazol-1-yl)-1H-1,2,3-triazol-1-yl]-3-deoxy-2-O-methyl-1-thio-α-D-galactopyranoside]	270	140
